Results on 2 substances are retold here after patent US20080004345A1, “Novel Water-Soluble Fullerene, Process for Producing the Same and Active Oxygen Generator Containing the Fullerene” (priority 2004, published 2008).

Data set [1] can be described thus: Molecular weight of aggregate by high performance liquid chromatography (TSKgel G3000PWXL). Type of data set: physicochemical. The following applies: HPLC, 50 mM phosphate buffer pH 6.9 with 0.3 M sodium chloride (20% acetonitrile for Example 1), PEG molecular weight markers. How it is done: Measurement of molecular weight of a fraction obtained by extracting the reaction liquid with equivalent amount of distilled water in Example 1 and a fraction after passing the aqueous layer through the cation exchange resin column was carried out using high performance liquid chromatography system 8020 (Tosoh Co., Ltd.) with TSKgel G3000PWXL (Tosoh Co., Ltd.). 50 mM phosphate buffer (pH 6.9) containing 20% acetonitrile and 0.3 M sodium chloride was used as mobile phase with a flow rate of mobile phase of 0.5 mL/min and the detection was performed at ultra-violet absorption of fullerene. Polyethylene glycols having known molecular weight (molecular weight 94,000 and 5,000) were used as molecular weight markers and the retention time was shown in FIG. 1.
As a comparative control, PEG having a methyl group at one end and an aminopropyl group at the other end and having a molecular weight 5000 was used, and the measurement of molecular weight of a fullerene-water-soluble polymer conjugate synthesized in a molar ratio of 1:10 following a method described in Example 1 of JP-A-09-235235 was carried out. 50 mM phosphate buffer (pH 6.9) containing 0.3 M sodium chloride was used as mobile phase with a flow rate of mobile phase of 1 mL/min and the detection was performed at ultra-violet absorption of fullerene. […]

A short description of data set [2]: Particle size measurement by light scattering method. In kind it is physicochemical. The following applies: in distilled water, 1 mg/mL and 100 μg/mL. The protocol: Particle size measurement by light scattering method was performed on the water-soluble fullerene of the present invention. The water-soluble fullerene which was synthesized with Example 1 was dissolved in distilled water so that the final concentration might be 1 mg/mL and 100 μg/mL. This solution was measured with light scattering measuring apparatus DLS-7000 (Otsuka Electronics Co., Ltd.).

The test system of data set [3] is mouse colon cancer Colon26. Nature of the data set: In vivo anticancer activity by light irradiation in cancer bearing mice. The protocol:
Administration routes were changed and anticancer activity in vivo by light irradiation was compared. Cancer bearing mice were prepared by removing a tumor block which had been passaged from mouse colon cancer Colon26 cells (provided by Cancer Chemotherapy Center of Cancer Research Society) by subcutaneous transplantation of BALB/c-nn (female, Charles River-Laboratories Japan, Inc.) and transplanting a strip piece onto the back subcutis of CDF1 mouse (female, Charles River Laboratories Japan, Inc.). The cancer bearing mice were used in the experiment in five days after transplantation in which cancer having a diameter of around 5 mm was formed in subcutis. […]
Cancer bearing mice to which water-soluble fullerene was not administered and which were not irradiated with light were used as a control group and the size of the tumor of the subcutaneous region was measured for each mouse with time. The cancer size was measured by actually measuring the major axis and the minor axis of the cancer with a slide caliper and calculated using a calculation formula reported by Winn (Natl. Cancer Inst Monogr., Vol. 2, p 113-138 (1960)).

The nature of data set [4]: Amount of active oxygen generated by light irradiation, cytochrome method. The following applies: 200 μM solution mixed with cytochrome c in HBSS, light 220-800 nm, 30° C., 20 minutes. The protocol:
The amount of generated active oxygen (superoxide anion, O2^−) was measured by cytochrome method. 200 μL of a solution in which cytochrome c (Nacalai Tesque Corporation) was dissolved in a Hanks' balanced salt solution (HBSS, pH 7.4, Lifetech Oriental Company) so that the final concentration might be 50 μM and 200 μL of a solution in which fullerene linked to one molecule of PEG (molecular weight 12000) prepared in Example 2 was dissolved in HBSS so that the final concentration might be 200 μM were mixed. This mixed solution was irradiated with light of various wavelengths (220-800 nm) with spectrophotofluorometer F-2000 (Hitachi, Ltd.) at 30° C. for 20 minutes. After irradiation, absorbance of the solution at 550 nm was measured with spectrophotometer DU-650 (Beckmann Company). The amount of generated O2— per minute was shown in FIG. 4 assuming a solution under light shielding condition at 30° C. for 20 minutes as control.

The subject of data set [5] is RLmale 1 cells. Nature of the data set: In vitro cancer cell growth inhibitory activity by light irradiation. In kind it is cell-based. The note with it: 62.5-250 μM solutions, light irradiated for 40 minutes, cultured three days. How it is done:
Cancer cell growth inhibitory activity in in vitro by light irradiation was measured. RLmale 1 cells (provided by Kyoto Pasteur Laboratory) were used as a cancer cell and these cells were incubated under culture conditions of 5% CO2, 95% atmosphere, at 37° C. in RPMI 1640 culture medium (Sigma Company, containing 10% fetal bovine serum) with 100 mm dish till they became 80% confluent. The water-soluble fullerene of Example 2 was dissolved in a culture medium of the same composition as used for culture of cancer cells under light shielding condition and after adjusted to the concentration of 250 μM, it was sterilized and filtered. The sterilized solution of 250 μM was diluted with a culture medium sequentially to prepare solutions of 125 μM and 62.5 μM. […] After the culturing for three days, 10 μL each of viable count measurement reagent SF (Nacalai Tesque Corporation) was added into each well, and after kept warm in an incubator for 80 minutes, absorbance at 450 nm was measured with a microplate leader VERSAmax (Japanese Molecular Device Company). The survival rate of cancer cells was determined assuming that the absorbance at 450 nm for the case in which compound of Example 2 was not added was 100% survival rate and the results are shown in FIG. 5.

The nature of data set [6]: Amount of active oxygen generated by ultrasonic irradiation, viable count measurement reagent SF. The note with it: 200 μM solution, 1 MHz, duty cycle 30%, five minutes, output 1.5, 2.0, 2.5 and 3.0 W/cm^2. The protocol:
The amount of active oxygen (superoxide anion, O2^−) generated by ultrasonic irradiation was measured using viable count measurement reagent SF with reference to a report by Ukeda (DOJIN NEWS, No. 96, p 1-6, 2000). A solution in which water-soluble fullerene of Example 2 was dissolved in a Hanks' balanced salt solution so that it might be 200 μM was dispensed to 35 mm dish by 750 μL. This was mixed with 600 μL of a Hanks' balanced salt solution and 150 μL of viable count measurement reagent SF and, while stirred, irradiated with ultrasonic waves of various output (1.5, 2.0, 2.5 and 3.0 W/cm^2) with a frequency of 1 MHz, output mode (Duty cycle) 30% for five minutes from the liquid surface using an sonodynamic therapy device US-700 (Ito Ultrashort Wave Company). After irradiation, absorbance of the solution at 450 nm was measured with a spectrophotometer DU-650. The absorbance of the solution irradiated with ultrasonic wave without adding a compound at 450 nm was assumed as control and the amount of generated O2 per minute was shown in FIG. 7.

“Fullerene Linked to One Molecule of PEG (Molecular Weight 5000) [Example 1]”: the “molecular weight of aggregate formed by self assembly” value in data set [1] was “about 100,000”. In data set [2], the “particle diameter of aggregate” value was “about 50 nm”. For the same substance, the “increase of tumor volume” value in data set [3] (Colon26 bearing CDF1 mice, administration combined with light irradiation of tumor site, three consecutive days) was “Increase of a tumor volume was suppressed”. Also, the “order of tumor suppression effect by administration route” value in data set [3] (subcutaneous or intra-tumor 6 mg/mL 100 μL, light 5 minutes after, intravenous 60 mg/mL 100 μL, light 24 hours after) is reported as “subcutaneous administration<intra-tumor administration<intravenous administration”.
Take “Fullerene Linked to One Molecule of PEG (Molecular Weight 12000) [Example 2]”: the “particle diameter of aggregate” value in data set [2] was “about 100 nm”. Further, in data set [4], the “generation of O2− on light irradiation” value is on record as “generation of O2— was observed in a wide wavelength range from ultraviolet to visible light areas” and the “wavelength range of particularly significant O2− generation” value lay in the range of 260 to 450 nm. The “survival rate of cancer cells” value in data set [5] is given as “significantly decreases the survival rate of cancer cells as the addition amount thereof increases”. The “amount of active oxygen on ultrasonic irradiation” value in data set [6] is listed as “the amount of active oxygen increases according to the output increases”.
